Active and inactive are the calls of the source. No cut-off for these calls is given here.
Experiments:
[1] = Drug uptake in African green monkey COS-1 cells at 10 uM measured after 24 hrs by trypan blue staining based LC-MS/MS analysis; type: ADME, cell-based; details: chlorocebus aethiops, cos-1, 24 h
Homo sapiens = organism: Homo sapiens; assay: Ratio of Ki for displacement of NEt-C343 from human RXRalpha-LBD expressed in African green monkey COS-1 cells to Kd for binding affinity to human RXRalpha-LBD expressed in African green monkey COS-1 cells; type: cell-based
[2] = target: T1, Retinoic acid receptor RXR-alpha (Homo sapiens) (UniProt P19793); assay: Antagonist activity at human RXR-alpha expressed in African green monkey COS-1 cells assessed as reduction in NEt-TMN-induced receptor transactivation by measuring shift in concentration-response curve at 1 uM by luciferase reporter gene assay
T1 sequence (whole entry): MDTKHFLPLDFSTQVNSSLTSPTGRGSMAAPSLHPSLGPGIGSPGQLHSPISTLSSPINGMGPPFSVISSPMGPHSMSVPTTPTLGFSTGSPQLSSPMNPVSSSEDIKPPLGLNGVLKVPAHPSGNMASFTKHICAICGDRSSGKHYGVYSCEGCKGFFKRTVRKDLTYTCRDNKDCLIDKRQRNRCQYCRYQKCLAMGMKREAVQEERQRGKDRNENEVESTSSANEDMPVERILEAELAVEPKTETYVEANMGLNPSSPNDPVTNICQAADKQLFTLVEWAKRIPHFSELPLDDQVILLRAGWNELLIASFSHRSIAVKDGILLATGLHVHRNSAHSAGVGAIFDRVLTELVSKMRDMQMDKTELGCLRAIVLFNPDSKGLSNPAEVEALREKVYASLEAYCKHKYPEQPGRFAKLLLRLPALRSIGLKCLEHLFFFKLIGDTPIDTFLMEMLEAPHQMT

[3] = target: T2, Retinoic acid receptor RXR-alpha (Homo sapiens, UniProt P19793); assay: Displacement of NEt-C343 from human RXRalpha-LBD expressed in African green monkey COS-1 cells assessed as inhibition constant incubated for 2 hrs by competitive binding assay; type: cell-based
T2 sequence (P19793 whole entry): T1 sequence (whole entry)

[4] = target: T2, Retinoic acid receptor RXR-alpha; assay: Binding affinity to human RXRalpha-LBD expressed in African green monkey COS-1 cells assessed as dissociated constant incubated for 2 hrs by tryptophan fluorescence quenching assay; type: cell-based
[5] = target: T2, Retinoic acid receptor RXR-alpha; assay: Antagonist activity at human RXR-alpha expressed in African green monkey COS-1 cells assessed as reduction in NEt-TMN-induced receptor transactivation at 1 uM by luciferase reporter gene assay; type: cell-based; details: read-out: pA2 (converted)
[6] = target: T2, Retinoic acid receptor RXR-alpha; assay: Antagonist activity at human RXR-alpha expressed in African green monkey COS-1 cells assessed as reduction in bexarotene-induced receptor transactivation at 1 uM by luciferase reporter gene assay; type: cell-based; details: read-out: pA2 (converted)

Row | Drug uptake [1] [pg/10^4 cells] | Activity [2] | Ki [3] [nM] | Kd [4] [nM] | Kb [5] [nM] | Kb [6] [nM] | Compound | Ratio (Homo sapiens)
1 | 55.1 | – | – | – | – | – | CCCCCCOc1cc2c(cc1-n1c(C(F)(F)F)nc3cc(C(=O)O)ccc31)C(C)(C)CCC2(C)C | –
2 | 10.2 | inactive | 3540 | 764 | – | – | CCCCCOc1cc2c(cc1-n1nnc3cc(C(=O)O)ccc31)C(C)(C)CCC2(C)C | 4.63
3 | 14.8 | – | 384 | 277 | 26.3 | 8.71 | CCCCCOc1cc2c(cc1-n1c(C(F)(F)F)nc3cc(C(=O)O)ccc31)C(C)(C)CCC2(C)C | 1.39
4 | 81.6 | inactive | 3160 | 705 | – | – | CCCCCCOc1cc2c(cc1-n1nnc3cc(C(=O)O)ccc31)C(C)(C)CCC2(C)C | 4.48

From ChEMBL document CHEMBL5029199, “Increased Molecular Flexibility Widens the Gap between K i and K d values in Screening for Retinoid X Receptor Modulators” (ACS Med Chem Lett, 2022)
